Entries after “also recorded” stand apart in the source; their conditions may differ.

Series [1] relates to mammals. The conditions noted are these: cited from earlier work; for neuronal toxicity: several months after the treatment.
Series [2] concerns male Sprague-Dawley rats. Nature of the series: Near infrared fluorescence (NIRF) imaging of lymph nodes after penile intracavernous ICG injection. Format: in vivo, rat. The procedure: Twenty two 22 male Sprague-Dawley rats received penile intracavernous ICG injections (20 μl of 0.25 mg/ml). […] A Novadaq intraoperative NIRF imaging system (SPY®) was used for macroscopic fluorescence imaging and an Olympus NIRF microscope IX 70 (Olympus America, Inc., Center Valley, Pa.) was used for histology. All animals were anesthetized and shaved before imaging. All visualized nodes were sent for NIR microscopy and haematoxylin and eosin (H&E) staining for histological examination.
More than one pair of sentinel lymph nodes were visualized in 2 rats. […] Lymphatic channels were seen leading to sentinel lymph nodes at 6, 12 and 24 hours (FIG. 1). […] (FIG. 1). […] Thus, NIR fluorescence using ICG facilitates both pre- and intraoperative identification of the first site of penile lymphatic drainage. The methods of the invention should therefore improve the accuracy of surgical staging in patients with penile carcinomas.

The conditions of series [3]: cited from earlier work.
The conditions of series [4]: 806 nm excitation light; cited from earlier work.

`N=C(N)c1ccc(/C=C/c2ccc(C(=N)N)cc2O)cc1` [Fluorogold]: in series [1], the toxicity in mammals result is recorded as “low evidence of toxicity” and the neuronal toxicity result was “without evidence of neuronal toxicity”.
As to `CC1(C)C(/C=C/C=C/C=C/C=C2\N(CCCCS(=O)(=O)O)c3ccc4ccccc4c3C2(C)C)=[N+](CCCCS(=O)(=O)[O-])c2ccc3ccccc3c21` [ICG, indocyanine green], in series [1], the toxicity in mammals entry is listed as “low evidence of toxicity” and the neuronal toxicity entry is listed as “without evidence of neuronal toxicity”. Besides, in series [2] (6, 12 and 24 hours post-injection), the “lymphatic channels leading to sentinel lymph nodes” value is listed as “seen”. Also, the “how long lymph nodes could be seen through the body wall after injection” value in series [2] (animal studies) is given as “for days”. Moreover, in series [2] (rats), the “confirmation of lymph nodes by NIR microscopy and conventional histology” value is “All lymph nodes were confirmed”; the “visualization of inguinal and iliac sentinel lymph nodes with NIRF” value is “clearly visualized”. Moreover, the “intraoperative confirmation of preoperative localization of inguinal nodes” value in series [2] (rats, intraoperative NIRF) is reported as “confirmed the preoperative localization of the inguinal nodes; also recorded: confirmed preoperative localization of all inguinal nodes”. In series [3] (in vivo), the enterohepatic recirculation entry was “does not undergo enterohepatic recirculation”, the “metabolism in the body” value is reported as “not metabolized”, the “reabsorption from the intestine” value is “not reabsorbed” and the route of excretion result is reported as “excreted exclusively by the liver”. In addition, the “distribution after intravenous injection” value in series [3] (normal vascular permeability) is “remains intravascular”. In addition, in series [4], the emitted light wavelength is reported as 830 nm.
As to `CC1(C)C(/C=C/C=C/C=C/C=C2\N(CCCCS(=O)(=O)[O-])c3ccc4ccccc4c3C2(C)C)=[N+](CCCCS(=O)(=O)[O-])c2ccc3ccccc3c21.[Na+]` [indocyanine green (ICG)], the “shortest time after injection to ability to visualize the lymph nodes” value in series [2] (animal model) was found to be 10 min.
Consider Fast Blue, for which, in series [1], the toxicity in mammals result is listed as “low evidence of toxicity” and the neuronal toxicity entry was “without evidence of neuronal toxicity”.

The values are drawn from US10434190B2, “Pre-and-intra-operative localization of penile sentinel nodes” (NOVADAQ TECHNOLOGIES ULC, priority 2006, dated 2019).
